Consider six molecules from ChEMBL document CHEMBL1144358, “LEA3D: a computer-aided ligand design for structure-based drug design” (J Med Chem, 2005).

The structures appear in SMILES notation.

A word on the Ki: it is a measure of affinity in units of concentration, obtained from inhibition or displacement. Read a low Ki as a stronger hold on the target.

For one assay, the target named is T1, Thymidylate kinase (Mycobacterium tuberculosis, UniProt P9WKE1).
T1 sequence (P9WKE1 whole entry): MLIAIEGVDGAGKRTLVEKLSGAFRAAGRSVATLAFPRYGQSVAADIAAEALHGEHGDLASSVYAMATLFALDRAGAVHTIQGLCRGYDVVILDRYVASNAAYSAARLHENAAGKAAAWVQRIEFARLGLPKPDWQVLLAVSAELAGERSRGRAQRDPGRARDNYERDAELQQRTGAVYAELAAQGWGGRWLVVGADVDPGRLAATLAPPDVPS
Briefly: Binding affinity towards mycobacterium tuberculosis thymidine monophosphate kinase.
For the molecule `O=C(O)CCCc1ccc(Cn2cc(Br)c(=O)[nH]c2=O)cc1`, affinity was put at a Ki of 12.3 µM.

Another assay addresses T1, Thymidylate kinase. Briefly: Binding affinity towards mycobacterium tuberculosis thymidine monophosphate kinase; NI=No inhibition.
As for `Cc1cn(Cc2ccc(CCC#N)cc2)c(=O)[nH]c1=O`, the Ki result is reported as “Not Active”.
The same measure, in the same setting: the same measure for `Cc1cn(Cc2ccc(/C=C/C(=O)O)cc2)c(=O)[nH]c1=O`: “Not Active”.
Same read-out and setting: then `O=c1[nH]c(=O)n(Cc2ccccc2)cc1F`, with “Not Active”; and `Cc1cn(Cc2ccc(/C=C/C#N)cc2)c(=O)[nH]c1=O`, with “Not Active”; and `CCOC(=O)/C=C/c1ccc(Cn2cc(C)c(=O)[nH]c2=O)cc1`, with “Not Active”.
